According to patent US4783482A, “Bis(thiocyanato)palladium(II)complexes” (Engelhard Corporation, priority 1985, dated 1988):

Tests used:
S180 ascites [1] = assay: Anti-tumor evaluation: % increase in life span (% ILS) and survivors, S180 ascites in female CFW Swiss mice; assay type: in vivo; settings: for Best % ILS: best over doses
Procedure: The above-prepared compounds were evaluated against S180 ascites in female CFW Swiss mice. The mice were weighed (average weight: 20 g), placed into cages (four or six mice to a cage), and on day zero the mice were inoculated with 0.2 ml of a freshly prepared saline suspension (0.15 M NaCl) containing 1×10^7 tumor cells/ml or a total of 2×10^6 cells This inoculum was freshly prepared using "transfer" mice, which had been injected with tumor cells the previous week; it was obtained via the following steps: (1) the removal of cells from the peritoneal cavity of the sacrificed transfer mouse, (2) alternate centrifugation and washing operations (2-3 times with cold saline) to remove blood and other components, and (3) dilution of the volume of the packed cell with saline (1:3). A final centrifugation was carried out at 1000 RPM over a two minute period. A cell count was made on a 2,000-fold dilution of this 1:3 suspension by means of a Coulter Counter. A final dilution to 1×10^7 cells/ml was made, based on the average count.
On day 1, solutions of the test compounds were prepared, and each mouse in a set of four or six were injected with the same test compound at the same dosage. The doses were based on the average weight of the animals (cage weight). Also, beginning on day 1, two controls were employed containing six mice per control:
(1) Normal Control: This consisted solely of the carrier or diluent used in combination with the test compound; and
(2) Positive Control: This consisted solely of known anti-tumor agent cis-[Pt(NH3)2 Cl2 ] in saline (8 mg/kg) to test the response of the biological system.
The effectiveness of a test compound was measured in terms of the % increase in life span (%ILS) of the test mice relative to the Normal Control (Calculated from the day of tumor inoculation, i.e., day zero). To standardize the test data and permit intercomparisons, the day of evaluation was arbitrarily taken as that day corresponding to twice the mean life span (or average day of death) of the control. This established a practical upper limit of 100% on the %ILS attainable. For calculation purposes, the survivors of the day of evaluation were considered to have died on that day. The %ILS was calculated as follows: [formula] ILS values in excess of 50% were interpreted as antitumor activity, whereas values in excess of 75% indicated excellent antitumor activity.
All test compounds were evaluated in water containing 0.1-0.3% of the suspending agent "Klucel" (hydroxypropylcellulose).
Tables 3 and 4, infra, show the criticality of the ring size and the thiocyanato substituents, respectively. The protocols for determining effectiveness for the products in Tables 3 and 4 were identical to the procedure employed for determining the anti-tumor effectiveness of the products in Table 2.

S180 Ascites [2] = assay: ED90, LD50 and therapeutic index, S180 ascites; assay type: in vivo, mice; set-up: ED90: unit not given here; settings: dose which causes a 50% increase in life span in 90% of the mice, determined graphically
Procedure: The effective dose (ED90), lethal does (LD50) and therapeutic index (TI) were determined, via the method of Miller and Taiter (Reported by R. A. Turner, "Screening Methods in Pharmacology", Academic Press, New York, pages 61-62 (1976)).
In this study, ED90 represents the dose which causes a 50% increase in life span (ILS) in 90% of the test animals (mice), determined graphically. The LD50 value represents the lethal dose in 50% of said animals.

[3] = dose 10 mg/kg, on day of evaluation
[4] = dose 20 mg/kg, on day of evaluation
[5] = dose 40 mg/kg, on day of evaluation
[6] = dose 80 mg/kg, on day of evaluation
[7] = dose 160 mg/kg, on day of evaluation
[8] = dose 320 mg/kg, on day of evaluation
[9] = dose 5 mg/kg, on day of evaluation (twice mean life span of control)

NCCCN.O=[N+]([O-])[Pd][N+](=O)[O-] [Comp. Ex. G, dinitro(1,3-diaminopropane)palladium(II)]
% ILS (S180 ascites [1]; dose 10 mg/kg): 13% | Survivors (S180 ascites [1]; [3]): 0 of 4 | % ILS (S180 ascites [1]; dose 20 mg/kg): 16% | Survivors (S180 ascites [1]; [4]): 0 of 4 | % ILS (S180 ascites [1]; dose 40 mg/kg): 27% | Survivors (S180 ascites [1]; [5]): 0 of 4 | % ILS (S180 ascites [1]; dose 80 mg/kg): 0% | Survivors (S180 ascites [1]; [6]): 1 of 4 | % ILS (S180 ascites [1]; dose 160 mg/kg): -89% | Survivors (S180 ascites [1]; [7]): 0 of 4

N#C[S][Pd]1([S]C#N)[NH]c2ccccc2[NH]1 [Ex. 5, Bis(Thiocyanato)-o-Phenylenediaminepalladium(II)]
Best % ILS (S180 ascites [1]): 81% | % ILS (S180 ascites [1]; dose 10 mg/kg): 14% | Survivors (S180 ascites [1]; [3]): 0 of 4 | % ILS (S180 ascites [1]; dose 20 mg/kg): 15% | Survivors (S180 ascites [1]; [4]): 0 of 4 | % ILS (S180 ascites [1]; dose 40 mg/kg): 27% | Survivors (S180 ascites [1]; [5]): 0 of 4 | % ILS (S180 ascites [1]; dose 80 mg/kg): 81% | Survivors (S180 ascites [1]; [6]): 2 of 4 | % ILS (S180 ascites [1]; dose 160 mg/kg): 79% | Survivors (S180 ascites [1]; [7]): 1 of 4 | % ILS (S180 ascites [1]; dose 320 mg/kg): -73% | Survivors (S180 ascites [1]; [8]): 0 of 4 | ED90 (S180 Ascites [2]): 130

N#C[S][Pd][S]C#N.NCCCCN [Comp. Ex. B, bis(thiocyanato)-1,4-diaminobutanepalladium(II)]
% ILS (S180 ascites [1]; dose 10 mg/kg): -1% | Survivors (S180 ascites [1]; [3]): 0 of 6 | % ILS (S180 ascites [1]; dose 20 mg/kg): 15% | Survivors (S180 ascites [1]; [4]): 0 of 6 | % ILS (S180 ascites [1]; dose 40 mg/kg): -4% | Survivors (S180 ascites [1]; [5]): 0 of 6 | % ILS (S180 ascites [1]; dose 80 mg/kg): -21% | Survivors (S180 ascites [1]; [6]): 0 of 5 | % ILS (S180 ascites [1]; dose 160 mg/kg): 47% | Survivors (S180 ascites [1]; [7]): 0 of 5 | % ILS (S180 ascites [1]; dose 320 mg/kg): 2% | Survivors (S180 ascites [1]; [8]): 0 of 5

C[NH+]1CC[NH+](C)[Pd-2]1([S]C#N)[S]C#N (centres unmarked) [Ex. 4, Bis(Thiocyanato)-N,N'-Dimethylethylenediaminepalladium(II)]
Best % ILS (S180 ascites [1]): 62% | % ILS (S180 ascites [1]; dose 5 mg/kg): -2% | Survivors (S180 ascites [1]; [9]): 0 of 6 | % ILS (S180 ascites [1]; dose 10 mg/kg): 1% | Survivors (S180 ascites [1]; [3]): 0 of 6 | % ILS (S180 ascites [1]; dose 20 mg/kg): -5% | Survivors (S180 ascites [1]; [4]): 0 of 6 | % ILS (S180 ascites [1]; dose 40 mg/kg): 18% | Survivors (S180 ascites [1]; [5]): 1 of 6 | % ILS (S180 ascites [1]; dose 80 mg/kg): 62% | Survivors (S180 ascites [1]; [6]): 2 of 6 | % ILS (S180 ascites [1]; dose 160 mg/kg): -45% | Survivors (S180 ascites [1]; [7]): 1 of 6

N#C[S-].N#C[S-].NCCN.[Pd+2] [Ex. 1, Bis(Thiocyanato)ethylenediaminepalladium(II)]
Best % ILS (S180 ascites [1]): 79% | % ILS (S180 ascites [1]; dose 10 mg/kg): 2% | Survivors (S180 ascites [1]; [3]): 0 of 4 | % ILS (S180 ascites [1]; dose 20 mg/kg): 18% | Survivors (S180 ascites [1]; [4]): 0 of 4 | % ILS (S180 ascites [1]; dose 40 mg/kg): 79% | Survivors (S180 ascites [1]; [5]): 0 of 4 | % ILS (S180 ascites [1]; dose 80 mg/kg): 2% | Survivors (S180 ascites [1]; [6]): 1 of 4 | % ILS (S180 ascites [1]; dose 160 mg/kg): -87% | Survivors (S180 ascites [1]; [7]): 0 of 4 | % ILS (S180 ascites [1]; dose 320 mg/kg): -87% | Survivors (S180 ascites [1]; [8]): 0 of 4

[I][Pd]1([I])[NH]C2CCCCC2[NH]1 (centres unmarked) [Comp. Ex. M, Diiodo(1,2-Diaminocyclohexane)palladium(II)]
% ILS (S180 ascites [1]; dose 5 mg/kg): -4% | Survivors (S180 ascites [1]; [9]): 0 of 4 | % ILS (S180 ascites [1]; dose 10 mg/kg): -9% | Survivors (S180 ascites [1]; [3]): 0 of 4 | % ILS (S180 ascites [1]; dose 20 mg/kg): -20% | Survivors (S180 ascites [1]; [4]): 0 of 4 | % ILS (S180 ascites [1]; dose 40 mg/kg): -15% | Survivors (S180 ascites [1]; [5]): 0 of 4 | % ILS (S180 ascites [1]; dose 80 mg/kg): -16% | Survivors (S180 ascites [1]; [6]): 0 of 4 | % ILS (S180 ascites [1]; dose 160 mg/kg): 77% | Survivors (S180 ascites [1]; [7]): 1 of 4

N#C[S][Pd]1([S]C#N)[NH]CC(O)C[NH]1 [Comp. Ex. C, bis(thiocyanato)-1,3-diamino-2-propanolpalladium(II)]
% ILS (S180 ascites [1]; dose 10 mg/kg): -4% | Survivors (S180 ascites [1]; [3]): 0 of 6 | % ILS (S180 ascites [1]; dose 20 mg/kg): -7% | Survivors (S180 ascites [1]; [4]): 0 of 6 | % ILS (S180 ascites [1]; dose 40 mg/kg): -8% | Survivors (S180 ascites [1]; [5]): 0 of 6 | % ILS (S180 ascites [1]; dose 80 mg/kg): -76% | Survivors (S180 ascites [1]; [6]): 0 of 6 | % ILS (S180 ascites [1]; dose 160 mg/kg): -87% | Survivors (S180 ascites [1]; [7]): 0 of 6 | % ILS (S180 ascites [1]; dose 320 mg/kg): -92% | Survivors (S180 ascites [1]; [8]): 0 of 6
